# Laboratory results as given in US20200038513A1, “MODULATORS OF FAK PROTEOLYSIS AND ASSOCIATED METHODS OF USE” (ARVINAS OPERATIONS, INC., priority 2018, published 2020).
# Test system: MDA-MB-231 cells
# Assay: RPPA (reverse phase protein array)
# Assay type: cell-based, human
# Method: RPPA analysis was performed by MD Anderson Cancer Center RPPA core facility.
# Examination of the Molecular Signaling Events) and/or Downstream Pathways Responsible for the Migration and Invasion Effects Observed by Exemplary Compound Treatment. To pinpoint these observations to a molecular signaling event or specific downstream pathway, reverse phase protein array (RPPA) analysis was performed (Table 4).
smiles,measurement,setting,value
"Cc1ncsc1-c1ccc(CNC(=O)[C@@H]2C[C@@H](O)CN2C(=O)[C@@H](NC(=O)CCOCCOc2ccc(Nc3ncc(C(F)(F)F)c(NCc4cccc(N(C)S(C)(=O)=O)c4)n3)cc2)C(C)(C)C)cc1 [Compound 102, (2S,4R)-1-((S)-3,3-dimethyl-2-(3-(2-(4-((4-((3-(N-methylmethylsulfonamido)benzyl)amino)-5-(trifluoromethyl)pyrimidin-2-yl)amino)phenoxy)ethoxy)propanamido)butanoyl)-4-hydroxy-N-(4-(4-methylthiazol-5-yl)benzyl)pyrrolidine-2-carboxamide]","rel. Protein level, Mnk1",500nM,97.2%
same,"rel. Protein level, Myosin-11",500nM,101.0%
same,"rel. Protein level, Myosin-IIa_pS1943",500nM,113.7%
same,"rel. Protein level, Myt1",500nM,93.2%
same,"rel. Protein level, N-Cadherin",500nM,104.0%
same,"rel. Protein level, N-Ras",500nM,98.6%
same,"rel. Protein level, NAPSIN-A",500nM,99.4%
same,"rel. Protein level, NDRG1_pT346",500nM,118.1%
same,"rel. Protein level, NDUFB4",500nM,100.5%
same,"rel. Protein level, NF-kB-p65_pS536",500nM,108.3%
same,"rel. Protein level, Notch1",500nM,105.8%
same,"rel. Protein level, Notch3",500nM,112.1%
same,"rel. Protein level, Oct-4",500nM,102.3%
same,"rel. Protein level, P-Cadherin",500nM,108.3%
same,"rel. Protein level, PAI-1",500nM,106.1%
same,"rel. Protein level, PAICS",500nM,98.1%
same,"rel. Protein level, PAK1",500nM,106.0%
same,"rel. Protein level, PAK4",500nM,95.1%
same,"rel. Protein level, PAR",500nM,158.2%
same,"rel. Protein level, PARP",500nM,104.5%
same,"rel. Protein level, PCNA",500nM,97.5%
same,"rel. Protein level, PD-1",500nM,98.8%
same,"rel. Protein level, PD-L1",500nM,95.8%
same,"rel. Protein level, PDGFR-b",500nM,124.5%
same,"rel. Protein level, PDHK1",500nM,102.2%
same,"rel. Protein level, PDK1",500nM,99.6%
same,"rel. Protein level, PDK1_pS241",500nM,103.2%
same,"rel. Protein level, PEA-15",500nM,97.9%
same,"rel. Protein level, PEA-15_pS116",500nM,98.0%
same,"rel. Protein level, PI3K-p85",500nM,100.1%
same,"rel. Protein level, PI3K-p110-a",500nM,107.4%
same,"rel. Protein level, PI3K-p110-b",500nM,94.8%
same,"rel. Protein level, PKA-a",500nM,105.1%
same,"rel. Protein level, PKC-b-II_pS660",500nM,93.7%
same,"rel. Protein level, PKC-delta_pS664",500nM,98.8%
same,"rel. Protein level, PKCa",500nM,113.3%
same,"rel. Protein level, PKM2",500nM,105.8%
same,"rel. Protein level, PLC-gamma2_pY759",500nM,97.9%
same,"rel. Protein level, PLK1",500nM,95.0%
same,"rel. Protein level, PMS2",500nM,96.4%
same,"rel. Protein level, PR",500nM,96.8%
same,"rel. Protein level, PRAS40",500nM,104.0%
same,"rel. Protein level, PRAS40_pT246",500nM,92.3%
same,"rel. Protein level, PREX1",500nM,102.5%
same,"rel. Protein level, PTEN",500nM,124.6%
same,"rel. Protein level, Paxillin",500nM,91.8%
same,"rel. Protein level, Pdcd4",500nM,120.2%
same,"rel. Protein level, Porin",500nM,97.8%
same,"rel. Protein level, RBM15",500nM,105.1%
same,"rel. Protein level, RIP",500nM,105.6%
same,"rel. Protein level, RPA32",500nM,98.4%
same,"rel. Protein level, RPA32_pS4-S8",500nM,102.8%
same,"rel. Protein level, RSK",500nM,99.0%
same,"rel. Protein level, Rab11",500nM,102.8%
same,"rel. Protein level, Rab25",500nM,100.2%
same,"rel. Protein level, Rad50",500nM,103.9%
same,"rel. Protein level, Rad51",500nM,89.6%
same,"rel. Protein level, Raptor",500nM,103.3%
same,"rel. Protein level, Rb",500nM,106.3%
same,"rel. Protein level, Rb_pS807_S811",500nM,92.3%
same,"rel. Protein level, Rheb",500nM,103.3%
same,"rel. Protein level, Rictor",500nM,126.9%
same,"rel. Protein level, Rictor_pT1135",500nM,92.3%
same,"rel. Protein level, S6",500nM,112.2%
same,"rel. Protein level, S6_pS235_S236",500nM,57.3%
same,"rel. Protein level, S6_pS240_S244",500nM,51.9%
same,"rel. Protein level, b-Actin",500nM,97.4%
same,"rel. Protein level, b-Catenin",500nM,108.4%
same,"rel. Protein level, b-Catenin_pT41_S45",500nM,96.8%
same,"rel. Protein level, c-Abl",500nM,95.2%
same,"rel. Protein level, c-IAP2",500nM,100.4%
same,"rel. Protein level, c-Jun_pS73",500nM,92.3%
same,"rel. Protein level, c-Kit",500nM,100.1%
same,"rel. Protein level, c-Met_pY1234_Y1235",500nM,101.1%
same,"rel. Protein level, c-Myc",500nM,89.2%
same,"rel. Protein level, cdc2_pY15",500nM,92.3%
same,"rel. Protein level, cdc25C",500nM,99.5%
same,"rel. Protein level, eEF2",500nM,98.9%
same,"rel. Protein level, eEF2K",500nM,110.8%
same,"rel. Protein level, eIF4E",500nM,102.9%
same,"rel. Protein level, eIF4E_pS209",500nM,95.8%
same,"rel. Protein level, eIF4G",500nM,96.7%
same,"rel. Protein level, mTOR",500nM,98.9%
same,"rel. Protein level, mTOR_pS2448",500nM,92.3%
same,"rel. Protein level, p21",500nM,98.7%
same,"rel. Protein level, p27-Kip-1",500nM,101.1%
same,"rel. Protein level, p27_pT198",500nM,100.1%
same,"rel. Protein level, p38-MAPK",500nM,93.4%
same,"rel. Protein level, p38_pT180_Y182",500nM,93.4%
same,"rel. Protein level, p44-42-MAPK",500nM,112.7%
same,"rel. Protein level, p53",500nM,113.6%
same,"rel. Protein level, p70-S6K1",500nM,109.6%
same,"rel. Protein level, p70-S6K_pT389",500nM,92.3%
same,"rel. Protein level, p90RSK_pT573",500nM,98.5%
same,Fak level by RPPA (in words),"10% FBS, 8 hours",Fak degradation
same,p-Fak level by RPPA (in words),"10% FBS, 8 hours",reduced levels of p-Fak
same,"rel. Protein level [%], SCD","antibody SCD, 500nM, n = 2",94.3%
same,"rel. Protein level [%], SDHA","antibody SDHA, 500nM, n = 2",102.0%
same,"rel. Protein level [%], SF2","antibody SF2, 500nM, n = 2",105.3%
same,"rel. Protein level [%], SHP-2_pY542","antibody SHP-2_pY542, 500nM, n = 2",96.4%
same,"rel. Protein level [%], SLC1A5","antibody SLC1A5, 500nM, n = 2",100.8%
same,"rel. Protein level [%], SOD1-","antibody SOD1-, 500nM, n = 2",101.4%
same,"rel. Protein level [%], SOD2","antibody SOD2, 500nM, n = 2",103.5%
same,"rel. Protein level [%], STING","antibody STING, 500nM, n = 2",136.3%
same,"rel. Protein level [%], Shc_pY317","antibody Shc_pY317, 500nM, n = 2",100.3%
same,"rel. Protein level [%], Slfn11","antibody Slfn11, 500nM, n = 2",96.5%
same,"rel. Protein level [%], Smac","antibody Smac, 500nM, n = 2",100.9%
same,"rel. Protein level [%], Smad1","antibody Smad1, 500nM, n = 2",96.6%
same,"rel. Protein level [%], Smad3","antibody Smad3, 500nM, n = 2",110.8%
same,"rel. Protein level [%], Smad4","antibody Smad4, 500nM, n = 2",100.2%
same,"rel. Protein level [%], Snail","antibody Snail, 500nM, n = 2",107.4%
same,"rel. Protein level [%], Sox2","antibody Sox2, 500nM, n = 2",105.3%
same,"rel. Protein level [%], Src","antibody Src, 500nM, n = 2",103.5%
same,"rel. Protein level [%], Src_pY419","antibody Src_pY419, 500nM, n = 2",98.9%
same,"rel. Protein level [%], Src_pY527","antibody Src_pY527, 500nM, n = 2",91.0%
same,"rel. Protein level [%], Stat3","antibody Stat3, 500nM, n = 2",99.2%
same,"rel. Protein level [%], Stat3_pY705","antibody Stat3_pY705, 500nM, n = 2",119.9%
same,"rel. Protein level [%], Stat5a","antibody Stat5a, 500nM, n = 2",111.4%
same,"rel. Protein level [%], Stathmin-1","antibody Stathmin-1, 500nM, n = 2",101.8%
same,"rel. Protein level [%], Syk","antibody Syk, 500nM, n = 2",92.8%
same,"rel. Protein level [%], TAZ","antibody TAZ, 500nM, n = 2",89.0%
same,"rel. Protein level [%], TFAM","antibody TFAM, 500nM, n = 2",107.8%
same,"rel. Protein level [%], TFRC","antibody TFRC, 500nM, n = 2",99.8%
same,"rel. Protein level [%], TIGAR","antibody TIGAR, 500nM, n = 2",96.8%
same,"rel. Protein level [%], TRIM25","antibody TRIM25, 500nM, n = 2",108.0%
same,"rel. Protein level [%], TSC1","antibody TSC1, 500nM, n = 2",106.5%
same,"rel. Protein level [%], TTF1","antibody TTF1, 500nM, n = 2",102.7%
same,"rel. Protein level [%], TUFM","antibody TUFM, 500nM, n = 2",96.9%
same,"rel. Protein level [%], TWIST","antibody TWIST, 500nM, n = 2",96.9%
same,"rel. Protein level [%], Tau","antibody Tau, 500nM, n = 2",101.7%
same,"rel. Protein level [%], Transglutaminase","antibody Transglutaminase, 500nM, n = 2",107.8%
same,"rel. Protein level [%], Tuberin","antibody Tuberin, 500nM, n = 2",106.3%
same,"rel. Protein level [%], Tuberin_pT1462","antibody Tuberin_pT1462, 500nM, n = 2",93.5%
same,"rel. Protein level [%], Tyro3","antibody Tyro3, 500nM, n = 2",98.8%
same,"rel. Protein level [%], U-Histone-H2B","antibody U-Histone-H2B, 500nM, n = 2",108.7%
same,"rel. Protein level [%], UBAC1","antibody UBAC1, 500nM, n = 2",100.4%
same,"rel. Protein level [%], UGT1A","antibody UGT1A, 500nM, n = 2",94.3%
same,"rel. Protein level [%], ULK1_pS757","antibody ULK1_pS757, 500nM, n = 2",100.9%
same,"rel. Protein level [%], VASP","antibody VASP, 500nM, n = 2",108.6%
same,"rel. Protein level [%], VEGFR-2","antibody VEGFR-2, 500nM, n = 2",93.7%
same,"rel. Protein level [%], VHL-EPPK1","antibody VHL-EPPK1, 500nM, n = 2",90.7%
same,"rel. Protein level [%], WIPI1","antibody WIPI1, 500nM, n = 2",112.5%
same,"rel. Protein level [%], WIPI2","antibody WIPI2, 500nM, n = 2",108.8%
same,"rel. Protein level [%], Wee1","antibody Wee1, 500nM, n = 2",92.3%
same,"rel. Protein level [%], Wee1_pS642","antibody Wee1_pS642, 500nM, n = 2",94.7%
same,"rel. Protein level [%], XBP-1","antibody XBP-1, 500nM, n = 2",92.8%
same,"rel. Protein level [%], XPA","antibody XPA, 500nM, n = 2",96.4%
same,"rel. Protein level [%], XPF","antibody XPF, 500nM, n = 2",109.0%
same,"rel. Protein level [%], XRCC1","antibody XRCC1, 500nM, n = 2",104.0%
same,"rel. Protein level [%], YAP","antibody YAP, 500nM, n = 2",95.4%
same,"rel. Protein level [%], YAP_pS127","antibody YAP_pS127, 500nM, n = 2",106.2%
same,"rel. Protein level [%], YB1_pS102","antibody YB1_pS102, 500nM, n = 2",92.3%
same,"rel. Protein level [%], ZAP-70","antibody ZAP-70, 500nM, n = 2",92.5%
